# Measurements published in US6903134B2, “Formulation comprising benzofuranone derivatives for protection against oxidative stress” (Merck Patent GmbH, priority 2000, dated 2005).
# How the values were obtained:
# [1] = 2,2-diphenyl-1-picrylhydrazyl (DPPH) assay, free-radical scavenging; format: biochemical; conditions: for free-radical scavenger / antioxidant properties compared with tocopherol (vitamin E): DPPH assay, same experimental set-up; for Absorbance in %, based on absorbance without THBC: 515 nm, 25° C., 1 cm, constant absorbance
# Text: The performance of the DPPH assay is described in Brand-Williams, W., Cuvelier, M. E. & Berset, C. […] Gamez, E. J. et al. “Antioxidant flavonoid glycosides from Daphniphyllum calycinum”; J. Nat. Prod.
# 2,2-Diphenyl-1-picrylhydrazyl is a free radical which is stable in solution. The unpaired electron results in a strong absorption band at 515 nm, and the solution has a dark violet colour. In the presence of a free-radical scavenger, the electron is paired, the absorption disappears, and the decoloration proceeds stoichiometrically taking into account the electrons taken up. The absorbance is measured in a photometer. The anti-free-radical property of the substance to be tested is determined by measuring the concentration at which 50% of the 2,2-diphenyl-1-picrylhydrazyl employed has reacted with the free-radical scavenger. This concentration is expressed as EC50, a value which can be considered to be a property of the substance under the given measurement conditions. The substance investigated is compared with a standard (for example tocopherol).
# In addition, the slope of the straight lines in the linear region is determined and the EC50 calculated.
# A 70 μM stock solution of 2,2-diphenyl-1-picrylhydrazyl (DPPH) in ethanol was prepared. Such amounts of 4,6,3′,4′-tetrahydroxybenzylcoumaranone (THBC) were added to aliquots of this solution so as to give the THBC/DPPH ratios indicated in Table 1. The absorbance was in each case measured at 515 nm, 25° C. and 1 cm, with Table 1 in each case indicating the value measured at constant absorbance. The values are plotted graphically against one another in FIG. 1, with the molar ratio being plotted on the x axis and the measured absorbance as a relative proportion of the absorbance measured for the stock solution (100%) being plotted on the y axis.
# [2] = Stabilisation of dibenzoylmethane UV filters against decomposition by UV light; format: physicochemical; conditions: no method or figures given
# Text: The invention furthermore relates to the stabilisation of UV filters. A known and effective class of light-protection filter substances is formed by dibenzoylmethane derivatives. However, it is disadvantageous that these substances are very easily decomposed by UV light, and their protective properties are thus lost. An example of a light-protection filter from this class of compounds which is available on the market is 4-(tert-butyl)-4′-methoxydibenzoylmethane, which has the following structure: [drawing 18]
structure (smiles),measurement,setting,value
"O=C1c2c(O)cc(O)cc2OC1Cc1ccc(O)c(O)c1 (centres unmarked) [THBC, 4,6,3′,4′-tetrahydroxybenzylcoumaranone]",free-radical scavenger / antioxidant properties compared with tocopherol (vitamin E),[1],better free-radical scavenger properties than tocopherol
same,free-radical scavenger / antioxidant properties compared with tocopherol (vitamin E),"[1]; listed as 4,6,3′,4′-Tetrahydroxycoumaranone",more potent antioxidant than tocopherol
same,"Absorbance in %, based on absorbance without THBC",[1]; THBC/DPPH 0.01,97.66%
same,"Absorbance in %, based on absorbance without THBC",[1]; THBC/DPPH 0.02,94.04%
same,"Absorbance in %, based on absorbance without THBC",[1]; THBC/DPPH 0.05,87.02%
same,"Absorbance in %, based on absorbance without THBC",[1]; THBC/DPPH 0.07,79.15%
same,"Absorbance in %, based on absorbance without THBC",[1]; THBC/DPPH 0.10,72.13%
same,"Absorbance in %, based on absorbance without THBC",[1]; THBC/DPPH 0.12,62.72%
same,"Absorbance in %, based on absorbance without THBC",[1]; THBC/DPPH 0.18,44.18%
same,"Absorbance in %, based on absorbance without THBC",[1]; THBC/DPPH 0.24,26.08%
same,"Absorbance in %, based on absorbance without THBC",[1]; THBC/DPPH 0.30,16.16%
same,"Absorbance in %, based on absorbance without THBC",[1]; THBC/DPPH 0.37,15.73%
same,"Absorbance in %, based on absorbance without THBC",[1]; THBC/DPPH 0.43,15.27%
same,"Absorbance in %, based on absorbance without THBC",[1]; THBC/DPPH 0.49,15.27%
same,"Absorbance in %, based on absorbance without THBC",[1]; THBC/DPPH 0.55,15.27%
same,"Absorbance in %, based on absorbance without THBC",[1]; THBC/DPPH 0.61,15.05%
same,"Absorbance in %, based on absorbance without THBC",[1]; THBC/DPPH 0.73,14.19%
same,"Absorbance in %, based on absorbance without THBC",[1]; THBC/DPPH 0.97,14.56%
same,"Absorbance in %, based on absorbance without THBC",[1]; THBC/DPPH 1.21,14.56%
same,stabilisation action for dibenzoylmethanes,[2],particularly high stabilisation action
